Measured values taken from article PMC5159850, “An adenylyl cyclase with a phosphodiesterase domain in basal plants with a motile sperm system” (Scientific Reports, 2016).

Target: T1, His-MpCAPE-PDE (Marchantia polymorpha, UniProt A0A1V1FXL5)
T1 construct: gene CAPE; N-terminal PDE domain 101-479 of 1610-residue MpCAPE; 6xHis and T7 tags (pET28a); E. coli Rosetta2(DE3)pLysS host; partially purified on Ni column
Experiment: reverse-phase HPLC of AMP or GMP formed, […] nm
Assay type: biochemical
Conditions: 0.5 mM cGMP, 0.5 mM MgCl2, MnCl2 or FeCl2, Tris-HCl pH 8.0, 37 °C, 20 min; partially purified protein

T1 sequence (A0A1V1FXL5 entry or part of it): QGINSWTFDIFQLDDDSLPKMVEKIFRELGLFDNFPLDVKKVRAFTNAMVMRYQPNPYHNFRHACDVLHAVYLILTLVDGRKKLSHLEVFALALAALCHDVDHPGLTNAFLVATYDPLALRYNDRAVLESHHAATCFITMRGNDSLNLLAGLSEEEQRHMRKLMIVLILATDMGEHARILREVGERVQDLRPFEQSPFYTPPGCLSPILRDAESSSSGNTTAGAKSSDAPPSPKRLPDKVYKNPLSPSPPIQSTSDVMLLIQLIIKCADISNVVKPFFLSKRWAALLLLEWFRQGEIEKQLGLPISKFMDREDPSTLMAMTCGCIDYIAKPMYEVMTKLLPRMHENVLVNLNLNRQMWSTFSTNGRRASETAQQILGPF

Q: For `Nc1nc2c(ncn2[C@@H]2O[C@@H]3COP(=O)(O)O[C@H]3[C@H]2O)c(=O)[nH]1` [cGMP], which “reverse-phase HPLC of AMP or GMP formed, 259 nm” value is on record?
A: The result showed that His-MpCAPE-PDE hydrolyzed both cAMP and cGMP
